Data on one molecule can be found in publication PMC2903208 (Organic letters, 2010).

This assay deals with T1, mCD1d (Mus musculus, UniProt P11609).
T1 sequence (P11609 22-305 limits assumed): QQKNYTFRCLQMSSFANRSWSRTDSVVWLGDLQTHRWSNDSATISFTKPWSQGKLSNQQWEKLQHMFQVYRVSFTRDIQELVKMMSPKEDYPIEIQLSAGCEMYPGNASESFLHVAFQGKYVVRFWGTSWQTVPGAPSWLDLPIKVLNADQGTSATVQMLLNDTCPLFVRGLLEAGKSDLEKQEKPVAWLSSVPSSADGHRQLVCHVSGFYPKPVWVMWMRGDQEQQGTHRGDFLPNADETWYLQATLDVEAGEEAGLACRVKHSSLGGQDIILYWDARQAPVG
T1 sequence (P01887 21-119 partner): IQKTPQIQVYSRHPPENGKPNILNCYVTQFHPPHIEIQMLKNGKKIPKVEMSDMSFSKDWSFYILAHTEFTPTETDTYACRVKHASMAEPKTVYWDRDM
Briefly: SPR of soluble TCR binding to glycolipid-loaded mCD1d.

pKd: −log10 of the molar value.

Regarding `CCCCCCCCCCCCCCCCCCCCCCCCCC(=O)N[C@@H](CO[C@H]1O[C@H](CO)[C@H](O)[C@H](O)[C@H]1O)[C@H](O)[C@H](O)CCCCCCCCCCCCCC` [compound 1, α-GalCer], the negative-log Kd (pKd) was 7.89.

By pKd is commonly meant −log10 of the Kd, conventionally taken in molar units.
